In patent US10575525B2, “Benzoxazole compound or salt thereof, agricultural and horticultural insecticide comprising the compound, and method for using the insecticide” (Nihon Nohyaku Co., Ltd., priority 2016, dated 2020) one finds mortality data, which are given here for two molecules.

For one assay, the system named is Plutella xylostella. The assay can be described thus: Insecticidal test on Plutella xylostella (dip of Chinese cabbage seedlings with laid eggs). Format: in vivo. The settings on record: 144 h, seedlings with eggs dipped about 30 seconds, 25° C., 6 days after dip treatment, criteria of Test Example 2, read-out: insecticidal effect (corrected mortality rate), activity level. An excerpt: Insecticidal test on Plutella xylostella
Adults of Plutella xylostella were released onto Chinese cabbage seedlings and allowed to lay eggs thereon. At 2 days after the release of the adults, the Chinese cabbage seedlings with laid eggs were dipped for about 30 seconds in agrochemical aqueous dispersions diluted to 500 ppm, each of which contained a different kind of benzoxazole compound represented by the general formula (1) of the present invention as an active ingredient. After air-dried, the seedlings were kept in a thermostatic chamber at 25° C. At 6 days after the dip treatment, the number of hatched larvae per plot was counted, the mortality rate was calculated according to the formula shown below, and the insecticidal effect was evaluated according to the criteria of Test Example 2. This test was conducted in triplicate using 10 adults of Plutella xylostella per plot. Corrected mortality rate (%)=100×(Number of hatched larvae in a non-treatment plot−Number of hatched larvae in a treatment plot)/Number of hatched larvae in a non-treatment plot [Math. 3]

In the next assay the test system is Laodelphax striatella. The assay can be described thus: Insecticidal test on Laodelphax striatella (rice seedling dip). Format: in vivo. The settings on record: Laodelphax striatellus, 192 h, rice seedlings dipped 30 seconds, 3rd-instar larvae, 8 days after inoculation, read-out: corrected mortality rate, activity level. From the text:
Insecticidal test on Laodelphax striatella
The benzoxazole compounds represented by the general formula (1) of the present invention or salts thereof were separately dispersed in water and diluted to 500 ppm. Rice plant seedlings (variety: Nihonbare) were dipped in the agrochemical dispersions for 30 seconds. After air-dried, each seedling was put into a separate glass test tube and inoculated with ten 3rd-instar larvae of Laodelphax striatella, and then the glass test tubes were capped with cotton plugs. At 8 days after the inoculation, the numbers of surviving larvae and dead larvae were counted, the corrected mortality rate was calculated according to the formula shown below and evaluated according to the criteria shown below. Corrected mortality rate (%)=100×(Survival rate in a non-treatment plot−Survival rate in a treatment plot)/Survival rate in a non-treatment plot [Math. 2] Criteria A: the corrected mortality rate is 100%. B: the corrected mortality rate is 90 to 99%. C: the corrected mortality rate is 80 to 89%. D: the corrected mortality rate is 50 to 79%.

Regarding `CCS(=O)(=O)c1cc(C2CC2)cnc1-c1nc2cc(OC(F)(F)F)ccc2o1` [Compound 1-3, 2-(5-Cyclopropyl-3-ethylsulfonylpyridin-2-yl)-5-(trifluoromethoxy)benzo[d]oxazole], the mortality at 500 ppm in the assay on Plutella xylostella and in the assay with Laodelphax striatella was 100% throughout.

As to `CCS(=O)(=O)c1cc(C2CC2)cnc1-c1nc2cc([S+]([O-])C(F)(F)F)ccc2o1` (stereo not shown) [Compound 1-12, 2-(5-Cyclopropyl-3-ethylsulfonylpyridin-2-yl)-5-(trifluoromethylsulfinyl)benzo[d]oxazole], the mortality at 500 ppm in the assay with Plutella xylostella and with Laodelphax striatella was 100% throughout.
